Results taken from publication PMC12775434, “Ultra-large virtual screening unveils potent agonists of the neuromodulatory orphan receptor GPR139” (Nature Communications, 2025).
Values joined by “and” are separate entries in the source; they are usually repeats but may differ in a detail not shown here. Equal values may be shown once. Read-outs that look alike come from different tables or passages of the source.

Assays:
Type in all cases: cell-based
GPR139 [1] = target: T1, GPR139 (Homo sapiens, UniProt Q6DWJ6); experiment: Ca2+ mobilization assay, agonist mode, stable GPR139-CHOk1 cell line; settings: for Emax: normalized to Lundbeck Cmp 1a, read-out: Emax (%) Ca2+
T1 sequence (Q6DWJ6 1-353): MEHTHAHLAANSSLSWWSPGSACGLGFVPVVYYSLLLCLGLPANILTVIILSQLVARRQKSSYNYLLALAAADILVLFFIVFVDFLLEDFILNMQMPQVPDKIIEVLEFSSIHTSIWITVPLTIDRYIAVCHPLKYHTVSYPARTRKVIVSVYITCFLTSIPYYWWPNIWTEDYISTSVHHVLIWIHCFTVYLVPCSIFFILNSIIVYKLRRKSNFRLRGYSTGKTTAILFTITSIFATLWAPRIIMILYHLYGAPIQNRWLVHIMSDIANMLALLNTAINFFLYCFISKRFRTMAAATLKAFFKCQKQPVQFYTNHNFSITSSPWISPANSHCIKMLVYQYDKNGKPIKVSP
How it was run: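 Agonist activity of compounds is assessed in stably transfected CHO-K1 cells using the calcium dye Fluo-4 at 37 °C in HEPES-buffered HBSS (pH 7.4). Efficacy is expressed relative to the reference agonist Lundbeck Cmp 1a, set as 100%.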

GPR139 [2] = target: T1, GPR139; experiment: Ca2+ mobilization assay, antagonist mode (EC80 800 nM Lundbeck Cmp 1a after 20 min preincubation), GPR139-CHOk1
How it was run: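 Fluo-4-loaded GPR139-CHOk1 cells in HEPES-buffered HBSS (pH 7.4, 2.5 mM probenecid) given test compounds at 10 µM, then after 20 min challenged with 800 nM Lundbeck Cmp 1a (EC80). Calcium fluorescence read at 37 °C, 485/525 nm.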

[3] = target: T2, human muscarinic acetylcholine M1 receptor (M1R) (Homo sapiens, UniProt P11229); experiment: Ca2+ mobilization counter-screen in M1R-CHOk1 cells
T2 sequence (P11229 1-460): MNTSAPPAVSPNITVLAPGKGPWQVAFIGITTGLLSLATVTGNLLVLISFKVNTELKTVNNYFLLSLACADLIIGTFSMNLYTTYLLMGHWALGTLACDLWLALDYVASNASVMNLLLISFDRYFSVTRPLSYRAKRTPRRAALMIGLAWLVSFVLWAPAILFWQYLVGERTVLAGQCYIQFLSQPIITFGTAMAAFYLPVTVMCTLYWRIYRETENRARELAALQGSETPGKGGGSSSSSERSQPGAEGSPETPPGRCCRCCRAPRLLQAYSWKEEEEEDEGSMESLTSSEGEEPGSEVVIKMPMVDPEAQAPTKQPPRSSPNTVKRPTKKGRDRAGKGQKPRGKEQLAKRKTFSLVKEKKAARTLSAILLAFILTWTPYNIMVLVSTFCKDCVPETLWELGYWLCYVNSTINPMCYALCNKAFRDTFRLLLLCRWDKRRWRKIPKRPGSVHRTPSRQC
How it was run: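 M1R-CHOk1 cells seeded 20–24 h, loaded with 2 µM Fluo-4 AM (2.5 mM probenecid, 0.01% Pluronic F-68) for 1 h at 37 °C in HBSS/20 mM HEPES pH 7.4. Compounds added after baseline (≤0.3% DMSO); calcium fluorescence read at 37 °C, ex 485/em 525 nm.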

[4] = Agonist mode, individual replicates (Supplementary Figure 4)
[5] = GPR139-CHOk1, read-out: EC50, Ca2+ mobilization
[6] = Supplementary Table 2, mean ± SEM
[7] = log [Compound] M = -4.5, individual replicate columns
[8] = log [Compound] M = -5.0, individual replicate columns
[9] = log [Compound] M = -5.5, individual replicate columns
[10] = log [Compound] M = -6.0, individual replicate columns
[11] = log [Compound] M = -6.5, individual replicate columns
[12] = log [Compound] M = -7.0, individual replicate columns
[13] = log [Compound] M = -7.5, individual replicate columns
[14] = log [Compound] M = -8.0, individual replicate columns
[15] = log [Compound] M = -8.5, individual replicate columns
[16] = log [Compound] M = -9.0, individual replicate columns
[17] = individual replicates (Supplementary Figure 4)
[18] = individual replicates (Supplementary Figure 5)
[19] = Supplementary Table 2, mean ± SEM, read-out: pEC50 Ca2+ (converted)

Compound | Ca2+ signal (% of Cmp 1a) (GPR139 [1]; [4]) | EC50 (GPR139 [1]; [5]) [nM] | Emax (GPR139 [1]; [6]) [%] | Ca2+ signal (% of Cmp 1a) (GPR139 [1]; [7]) | Ca2+ signal (% of Cmp 1a) (GPR139 [1]; [8]) | Ca2+ signal (% of Cmp 1a) (GPR139 [1]; [9]) | Ca2+ signal (% of Cmp 1a) (GPR139 [1]; [10]) | Ca2+ signal (% of Cmp 1a) (GPR139 [1]; [11]) | Ca2+ signal (% of Cmp 1a) (GPR139 [1]; [12]) | Ca2+ signal (% of Cmp 1a) (GPR139 [1]; [13]) | Ca2+ signal (% of Cmp 1a) (GPR139 [1]; [14]) | Ca2+ signal (% of Cmp 1a) (GPR139 [1]; [15]) | Ca2+ signal (% of Cmp 1a) (GPR139 [1]; [16]) | Ca2+ signal (% of Cmp 1a) (GPR139 [2]; [17]) | Ca2+ signal (% of Carbachol) [3, 18] | EC50 (GPR139 [1]; [19]) [nM] | also measured
Cc1nocc1-c1nc(CC(=O)NC(C)c2ccccc2)no1 (stereo not shown) [Compound 1.5, CC(C1=CC=CC=C1)NC(CC2=NOC(C3=CON=C3C)=N2)=O] | 113 % of Cmp 1a and 100 % of Cmp 1a and 116 % of Cmp 1a | 130 | 103 ± 6 | 80 % of Cmp 1a and 113 % of Cmp 1a and 109 % of Cmp 1a and 101 % of Cmp 1a | 104 % of Cmp 1a and 119 % of Cmp 1a and 100 % of Cmp 1a and 95 % of Cmp 1a | 91 % of Cmp 1a and 108 % of Cmp 1a and 100 % of Cmp 1a and 85 % of Cmp 1a | 78 % of Cmp 1a and 79 % of Cmp 1a and 91 % of Cmp 1a and 81 % of Cmp 1a | 55 % of Cmp 1a and 74 % of Cmp 1a and 73 % of Cmp 1a and 76 % of Cmp 1a | 36 % of Cmp 1a and 45 % of Cmp 1a and 52 % of Cmp 1a and 57 % of Cmp 1a | 14 % of Cmp 1a and 3.67 % of Cmp 1a and 9 % of Cmp 1a and 12 % of Cmp 1a | 17 % of Cmp 1a and 2 % of Cmp 1a and 47 % of Cmp 1a and -11 % of Cmp 1a | 10 % of Cmp 1a and -6.33 % of Cmp 1a and 1 % of Cmp 1a and -17 % of Cmp 1a | -2.67 % of Cmp 1a and 0.333 % of Cmp 1a and -5 % of Cmp 1a and -15 % of Cmp 1a | 3.33 % of Cmp 1a and -5.33 % of Cmp 1a and -2.33 % of Cmp 1a | 5 % of Carbachol and 6 % of Carbachol and 8 % of Carbachol |  | 
COc1cc(-c2nc(CC(=O)NC(C)c3ccccc3)no2)ccn1 (stereo not shown) [Compound 1.7, COC1=NC=CC(C2=NC(CC(NC(C3=CC=CC=C3)C)=O)=NO2)=C1] | 105 % of Cmp 1a and 108 % of Cmp 1a and 111 % of Cmp 1a |  | 113 ± 9 | 109 % of Cmp 1a and 102 % of Cmp 1a and 120 % of Cmp 1a | 102 % of Cmp 1a and 110 % of Cmp 1a and 134 % of Cmp 1a | 95 % of Cmp 1a and 141 % of Cmp 1a and 154 % of Cmp 1a | 70 % of Cmp 1a and 89 % of Cmp 1a and 113 % of Cmp 1a | 61 % of Cmp 1a and 84 % of Cmp 1a and 68 % of Cmp 1a | 40 % of Cmp 1a and 48 % of Cmp 1a and 53 % of Cmp 1a | 13 % of Cmp 1a and 22 % of Cmp 1a and 34 % of Cmp 1a | 1.88 % of Cmp 1a and 6 % of Cmp 1a and 10 % of Cmp 1a | 4.28 % of Cmp 1a and 11 % of Cmp 1a and 7 % of Cmp 1a | -0.46 % of Cmp 1a and 10 % of Cmp 1a and 7 % of Cmp 1a | -1.33 % of Cmp 1a and 38 % of Cmp 1a and -9 % of Cmp 1a | -3 % of Carbachol and 5.61 % of Carbachol and 2.51 % of Carbachol | 200 | 
Cc1cc(-c2nc(CC(=O)NC(C)c3ccccc3)no2)n(C)n1 (stereo not shown) [Compound 1.16, CC(C1=CC=CC=C1)NC(CC2=NOC(C3=CC(C)=NN3C)=N2)=O] | 103 % of Cmp 1a and 82 % of Cmp 1a and 85 % of Cmp 1a |  | 93 ± 11 | 93 % of Cmp 1a and 107 % of Cmp 1a and 110 % of Cmp 1a and 60 % of Cmp 1a | 86 % of Cmp 1a and 100 % of Cmp 1a and 83 % of Cmp 1a and 67 % of Cmp 1a | 73 % of Cmp 1a and 90 % of Cmp 1a and 92 % of Cmp 1a and 46 % of Cmp 1a | 52 % of Cmp 1a and 66 % of Cmp 1a and 72 % of Cmp 1a and 20 % of Cmp 1a | 27 % of Cmp 1a and 50 % of Cmp 1a and 60 % of Cmp 1a and -0.5 % of Cmp 1a | 9 % of Cmp 1a and 39 % of Cmp 1a and 26 % of Cmp 1a and -9.5 % of Cmp 1a | 0.333 % of Cmp 1a and 7 % of Cmp 1a and 17 % of Cmp 1a and 1.5 % of Cmp 1a | -3 % of Cmp 1a (2×) and -1 % of Cmp 1a and 9 % of Cmp 1a | 0 % of Cmp 1a and -5 % of Cmp 1a and 15 % of Cmp 1a and -2.5 % of Cmp 1a | 1.67 % of Cmp 1a and -3 % of Cmp 1a and 20 % of Cmp 1a and -7 % of Cmp 1a | 5 % of Cmp 1a and 13 % of Cmp 1a and -4.67 % of Cmp 1a | -2 % of Carbachol and 14 % of Carbachol and 5 % of Carbachol | 631 | 
COC(=O)c1cc(NC(=O)NC(C)c2cccc(F)c2F)ccc1C (stereo not shown) [Compound 2, COC(=O)C=1C=C(NC(=O)NC(C)C=2C=CC=C(F)C2F)C=CC1C] |  | 320 | 83 ± 6 |  |  |  |  |  |  |  |  |  |  |  |  |  | Ca2+ signal (% of Cmp 1a) (GPR139 [1]; 0.1 µM, individual replicates (Supplementary Figure 3)): 18.1 % of Cmp 1a and 15.9 % of Cmp 1a; Ca2+ signal (% of Cmp 1a) (GPR139 [1]; 1 µM, individual replicates (Supplementary Figure 3)): 65.0 % of Cmp 1a and 52.8 % of Cmp 1a; Ca2+ signal (% of Cmp 1a) (GPR139 [1]; 10 µM, individual replicates (Supplementary Figure 3)): 86.8 % of Cmp 1a and 54.5 % of Cmp 1a; Ca2+ signal (% of Cmp 1a) (GPR139 [1]; Agonist mode, individual replicates (Supplementary Figure 1)): 81 % of Cmp 1a and 65 % of Cmp 1a and 84 % of Cmp 1a; Ca2+ signal (% of Cmp 1a) (GPR139 [1]; log [Compound] M -4.5, replicate experiments): 74 % of Cmp 1a and 103 % of Cmp 1a and 90 % of Cmp 1a; Ca2+ signal (% of Cmp 1a) (GPR139 [1]; log [Compound] M -5.0, replicate experiments): 60 % of Cmp 1a and 92 % of Cmp 1a and 78 % of Cmp 1a; Ca2+ signal (% of Cmp 1a) (GPR139 [1]; log [Compound] M -5.5, replicate experiments): 65 % of Cmp 1a and 88 % of Cmp 1a and 71 % of Cmp 1a; Ca2+ signal (% of Cmp 1a) (GPR139 [1]; log [Compound] M -6.0, replicate experiments): 66 % of Cmp 1a and 74 % of Cmp 1a and 68 % of Cmp 1a; Ca2+ signal (% of Cmp 1a) (GPR139 [1]; log [Compound] M -6.5, replicate experiments): 25 % of Cmp 1a and 58 % of Cmp 1a and 38 % of Cmp 1a; Ca2+ signal (% of Cmp 1a) (GPR139 [1]; log [Compound] M -7.0, replicate experiments): 16 % of Cmp 1a and 20 % of Cmp 1a and 28 % of Cmp 1a; Ca2+ signal (% of Cmp 1a) (GPR139 [1]; log [Compound] M -7.5, replicate experiments): -9 % of Cmp 1a and -8 % of Cmp 1a and 6 % of Cmp 1a; Ca2+ signal (% of Cmp 1a) (GPR139 [1]; log [Compound] M -8.0, replicate experiments): -12 % of Cmp 1a and -7 % of Cmp 1a and 2.84 % of Cmp 1a; Ca2+ signal (% of Cmp 1a) (GPR139 [1]; log [Compound] M -8.5, replicate experiments): -1.88 % of Cmp 1a and 9 % of Cmp 1a and 21 % of Cmp 1a; Ca2+ signal (% of Cmp 1a) (GPR139 [1]; log [Compound] M -9.0, replicate experiments): -14 % of Cmp 1a and 6 % of Cmp 1a and 7 % of Cmp 1a; Ca2+ signal (% of Cmp 1a) (GPR139 [1]; primary screen, 10 µM compound, agonist mode, three columns = independent experiments): 81 % of Cmp 1a and 65 % of Cmp 1a and 84 % of Cmp 1a; Ca2+ signal (% of Cmp 1a) (GPR139 [2]; individual replicates (Supplementary Figure 1)): 21.0785 % of Cmp 1a and 18.2142 % of Cmp 1a and 25.1866 % of Cmp 1a; Ca2+ signal (% of Carbachol) ([3]; individual replicates (Supplementary Figure 2)): -10 % of Carbachol and 1.81 % of Carbachol
